The values below come from patent US9687467B2, “Diagnosis and treatment of taxane-resistant cancers” (Children's Medical Center Corporation, priority 2011, dated 2017).

One assay deals with MES-SA^DX5 cells. Kind of assay: MTT cell viability assay, paclitaxel response after miRNA transfection. The format is cell-based, human. The conditions noted are these: cells transfected with scrambled non-targeting miRNA, 100 nM paclitaxel. The procedure: (§1) The paclitaxel-resistant cell lines MES-SA^DX5 and A549^TR were transfected with a scrambled non-targeting miRNA (control) and an miR-135a mimic (mimic), respectively. Cells were subsequently treated with 100 nM paclitaxel and cell viability was assessed using the MTT assay (FIGS. 2A, 2B). The percentage of apoptotic cells was assessed by Annexin V-staining and FACS analysis (FIGS. 2C, 2D). Values are presented as percent cell survival in paclitaxel-treated cells relative to untreated cells. *P<0.05, **P<0.001 as determined by Wilcoxon's rank sum test.
Cell growth inhibition was determined by a 3-(4,5-dimethylthiazol-2-yl)-2,5-diphenyltetrazolium (MTT) bromide assay. Briefly, ˜2.5×10^4 cells were plated in a 96-well plate and paclitaxel was added in appropriate concentrations 24 hours later. […] Absorbance was determined using a 96-well SpectraMax plate reader (Molecular Devices, Sunnyvale, Calif.) at 560 nm and 650 nm (background).
Double-stranded RNA oligos representing a mature sequence that mimics endogenous miR-135a, anti-miR-135a designed to inhibit endogenous miR-135a, and anti-miR negative control were all obtained from Ambion™ and were transfected into cell lines at ˜50% confluence at 30 nM concentration with siLentFect (Bio-Rad™). […] The next day, luciferase activity was measured using the Dual-Glo® Luciferase assay system (Promega™, Madison, Wis.). […]

In another assay the test system is MES-SA cells. Kind of assay: MTT cell viability assay, paclitaxel response. It counts as cell-based, human. To be noted: 100 nM paclitaxel for 72 h. The method, then: as §1
FIGS. 4A-4E are a series of micrographs and line graphs showing that miR-135a-mediated APC suppression contributes to paclitaxel resistance. MES-SA and A549 cells were mock-transfected (mock), transfected with a scrambled siRNA (siControl) or with siRNA directed against APC (siAPC). […] Transfected A549 (FIG. 4B) and MES-SA (FIG. 4C) cells were treated with paclitaxel and viability was assessed using the MTT assay. […] (FIG. 4E) Both A549-shCON and -shAPC cells were treated with paclitaxel and cell viability was measured using the MTT assay. […]
Cell growth inhibition was determined by a 3-(4,5-dimethylthiazol-2-yl)-2,5-diphenyltetrazolium (MTT) bromide assay. […] Absorbance was determined using a 96-well SpectraMax plate reader (Molecular Devices, Sunnyvale, Calif.) at 560 nm and 650 nm (background). […]

For a further assay, the system named is T20.2 cells. Kind of assay: cells. It counts as cell-based. The conditions noted are these: Homo sapiens. The procedure: (FIG. 7A). The parental A549 cells, a cell line that became refractory during in vivo treatment with paclitaxel (T20.2 round 1) and the same cell line established after yet another round of in vivo paclitaxel treatment (T20.2 reinjection) were treated with paclitaxel and cell viability was assessed using the MTT assay. Represented are average LC50±s.e.m. determined by MTT assay for parental A549 cells (white boxes), **P<0.001, *P<0.05 as determined by Wilcoxon's rank sum test for T20.2 round 1 cells (hatched boxes) and for T20.2 re-injection cells (filled boxes). (FIG. 7B) The expression of miR-135a was examined in these cells by qRT-PCR. *P<0.05 as determined by Wilcoxon's rank sum test. […] The correlation between paclitaxel response and miR-135a expression was calculated using the Spearman's rank test. […] Subsequently, cells were treated with the indicated concentrations of paclitaxel and cell viability was assessed using the MTT assay. […]
Approximately 4×10^6 human A549 NSCLC cells were resuspended in 50% Matrigel (BD Biosciences, Bedford, Mass.) and injected subcutaneously into the hind flanks of 8-wk old male athymic (nu/nu) nude mice (Taconic Farms, Inc., Hudson, N.Y.). […] Tumor size was determined by digital caliper measurements (length and width in mm), and tumor volume (mm^3) was estimated using the formula (length×width^2)/2. […]

The structures appear in SMILES notation. Read-outs that look alike come from different tables or passages of the source.

For the compound `CC(=O)O[C@H]1C(=O)[C@@]2(C)[C@H]([C@H](OC(=O)c3ccccc3)[C@]3(O)C[C@H](OC(=O)[C@H](O)[C@@H](NC(=O)c4ccccc4)c4ccccc4)C(C)=C1C3(C)C)[C@]1(OC(C)=O)CO[C@@H]1C[C@@H]2O` [paclitaxel], the “cell survival in paclitaxel-treated cells relative to untreated cells” value in the assay with MES-SA^DX5 cells was 102.2%. In the assay on MES-SA cells, the cell survival worked out at 21.8%. In addition, the CC50 in the assay with T20.2 cells (read-out: median LC50, after one in vivo passage (T20.2 round 1), MTT, P=0.030) was found to be 13.3 nM; with T20.2 cells (read-out: median LC50, after re-injection (T20.2 reinjection), MTT, P=0.008) it was 127 nM.
